Literature values, collected in patent publication US6906044B2, “Regeneration of articular cartilage damaged by grade I and II osteoarthritis by means of the intraarticular application of a mixture of sodium hyaluronate and chondroitin sulfate in a gel vehicle” (Alcon, Inc., priority 2001, dated 2005).

Test system: injured knees of the horses
Conditions: observed by veterinarians at racetracks

**Q.** For sodium hyaluronate, which “reaction in injured knees” value is on record?
**A.** beneficial reaction
